Results: patent US11236046B2, “Substituted heterocyclic sulfonamide compounds useful as TRPA1 modulators” (Genentech, Inc., priority 2013, dated 2022)

Target: human TRPA1 (Homo sapiens (Human), UniProt O75762)
Assay: FLIPR Tetra calcium influx assay, block of cinnamaldehyde-induced calcium influx in CHO cells expressing TRPA1 (human)
Type: cell-based
Settings: 20 min compound incubation, 75 uM cinnamaldehyde (~EC80), Hill coefficient fixed to 1.5, read-out: hTRPA1 AUC IC50
Experimental: IC50 Determinations of Exemplified Compounds.
IC50s (effective concentration) of compounds on the human and rat TRPA1 channels were determined using a FLIPR Tetra instrument. CHO cells expressing TRPA1 were plated into 384-well plates, incubated overnight at 37C, and loaded with BD calcium indicator dye for 1 hr at 37° C. followed by 15 minutes. at room temperature. The assay buffer was Hank's Balanced Salt Solution (HBSS) containing 20 mM HEPES (pH readjusted to 7.4) along with 0.02% BSA.
Following dye load and plate cool down, compounds were added to the cells using FLIPR Tetra. Plates were then incubated with compounds for 20 minutes at room temperature prior to adding agonist. Following this incubation, ˜EC80 concentration of cinnamaldehyde (75 uM for human TRPA1 and 45 uM for rat TRPA1) was added to active the channels and block of cinnamaldehyde induced calcium influx was measured.
Fixing the Hill coefficient will generally reduce variability of the IC50 determination. The IC50s were individually examined to make sure the MIN and MAX points were set correctly prior to validation of the results.

Chain of human TRPA1 (O75762 whole entry): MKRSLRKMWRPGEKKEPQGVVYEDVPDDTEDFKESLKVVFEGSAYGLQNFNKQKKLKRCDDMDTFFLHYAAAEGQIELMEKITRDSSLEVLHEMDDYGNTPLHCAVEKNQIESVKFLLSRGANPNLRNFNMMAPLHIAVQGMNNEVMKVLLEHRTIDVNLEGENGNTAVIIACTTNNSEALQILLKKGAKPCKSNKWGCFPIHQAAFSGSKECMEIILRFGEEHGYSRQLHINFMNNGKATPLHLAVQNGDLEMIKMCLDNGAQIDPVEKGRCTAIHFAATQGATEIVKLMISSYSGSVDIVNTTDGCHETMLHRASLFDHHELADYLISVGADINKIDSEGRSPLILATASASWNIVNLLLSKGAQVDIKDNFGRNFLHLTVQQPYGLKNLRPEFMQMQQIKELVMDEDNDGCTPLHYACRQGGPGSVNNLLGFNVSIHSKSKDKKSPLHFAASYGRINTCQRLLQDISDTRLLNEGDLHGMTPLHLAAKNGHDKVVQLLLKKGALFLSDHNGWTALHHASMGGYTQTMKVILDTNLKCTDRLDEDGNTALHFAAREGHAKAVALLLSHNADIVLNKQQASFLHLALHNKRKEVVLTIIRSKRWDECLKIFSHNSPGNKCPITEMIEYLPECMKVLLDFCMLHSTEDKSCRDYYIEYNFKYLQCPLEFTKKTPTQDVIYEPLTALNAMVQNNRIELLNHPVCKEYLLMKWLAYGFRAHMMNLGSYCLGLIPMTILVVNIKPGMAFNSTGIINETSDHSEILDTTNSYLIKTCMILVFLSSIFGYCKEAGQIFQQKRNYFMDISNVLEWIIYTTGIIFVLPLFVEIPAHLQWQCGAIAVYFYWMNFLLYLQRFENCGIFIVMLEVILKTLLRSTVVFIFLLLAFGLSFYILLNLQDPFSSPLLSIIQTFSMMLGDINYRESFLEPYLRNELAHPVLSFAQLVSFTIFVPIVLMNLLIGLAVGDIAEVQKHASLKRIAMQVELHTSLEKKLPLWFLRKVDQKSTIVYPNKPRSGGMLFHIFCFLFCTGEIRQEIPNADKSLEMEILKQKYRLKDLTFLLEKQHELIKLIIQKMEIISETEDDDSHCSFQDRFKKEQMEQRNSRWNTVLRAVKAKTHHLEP

Structure (SMILES) | IC50 [nM]
O=C(NCc1ccnc(-c2cnc(C(F)(F)F)nc2)c1)[C@@H]1[C@H]2C[C@H]2CN1S(=O)(=O)c1ccc(F)cc1 [Example 172, (1R,4S,5S)-3-(4-fluorophenyl)sulfonyl-N-[[2-[2-(trifluoromethyl)pyrimidin-5-yl]-4-pyridyl]methyl]-3-azabicyclo[3.1.0]hexane-4-carboxamide] | 38
O=C(NCc1cc(F)cc(-c2ccc(C(F)(F)F)nn2)c1)[C@@H]1C[C@@H](F)CN1S(=O)(=O)c1ccc(F)cc1 [Example 89, (2S,4R)-4-fluoro-1-(4-fluorophenyl)sulfonyl-N-[[3-fluoro-5-[6-(trifluoromethyl)pyridazin-3-yl]phenyl]methyl]pyrrolidine-2-carboxamide] | 20
O=C(NCc1cc(Cl)nc(-c2ccc(OC(F)F)cc2)c1)[C@@H]1C[C@@H](F)CN1S(=O)(=O)c1ccc(F)cc1 [Example 165, (2S,4R)—N-((2-chloro-6-(4-(difluoromethoxy)phenyl)pyridin-4-yl)methyl)-4-fluoro-1-((4-fluorophenyl)sulfonyl)pyrrolidine-2-carboxamide] | 66
C[C@@]1(F)C[C@@H](C(=O)NCc2cc(F)cc(-c3cnc(C(F)(F)F)cn3)c2)N(S(=O)(=O)c2ccc(F)cc2)C1 [Example 47, (2S,4R)-4-fluoro-N-(3-fluoro-5-(5-(trifluoromethyl)pyrazin-2-yl)benzyl)-1-((4-fluorophenyl)sulfonyl)-4-methylpyrrolidine-2-carboxamide] | 11
O=C(NCc1cc(-c2ccc(OC(F)F)cc2)c(F)cn1)[C@@H]1C[C@@H](F)CN1S(=O)(=O)c1ccc(F)cc1 [Example 77, (2S,4R)—N-([4-[4-(difluoromethoxy)phenyl]-5-fluoropyridin-2-yl]methyl)-4-fluoro-1-[(4-fluorobenzene)sulfonyl]pyrrolidine-2-carboxamide] | 53
O=C(NCc1cc(Cl)nc(-c2cnc(C(F)(F)F)nc2)c1)[C@@H]1C[C@@H](F)CN1S(=O)(=O)c1ccc(F)cc1 [Example 62, (2S,4R)—N-[[2-chloro-6-[2-(trifluoromethyl)pyrimidin-5-yl]-4-pyridyl]methyl]-4-fluoro-1-(4-fluorophenyl)sulfonyl-pyrrolidine-2-carboxamide] | 14
N#Cc1cc(CNC(=O)[C@@H]2C[C@@H](F)CN2S(=O)(=O)c2ccc(F)cc2)cc(-c2ccc(C(F)(F)F)nc2)c1 [Example 112, (2S,4R)—N-[[3-cyano-5-[6-(trifluoromethyl)-3-pyridyl]phenyl]methyl]-4-fluoro-1-(4-fluorophenyl)sulfonyl-pyrrolidine-2-carboxamide] | 48

Results, then the molecule that gave them:

IC50 [nM] | Structure (SMILES)
38 | O=C(NCc1cc(-c2cnc(C(F)(F)F)nc2)c(F)cn1)[C@@H]1C[C@@H](F)CN1S(=O)(=O)c1ccc(F)cc1 [Example 167, (2S,4R)-4-fluoro-N-((5-fluoro-4-(2-(trifluoromethyl)pyrimidin-5-yl)pyridin-2-yl)methyl)-1-(4-fluorophenylsulfonyl)pyrrolidine-2-carboxamide]
189 | O=C(NCc1cc(-c2cnc(C(F)(F)F)cn2)ccn1)[C@@H]1C[C@@H](F)CN1S(=O)(=O)c1ccc(F)cc1 [Example 82, (2S,4R)-4-fluoro-1-(4-fluorophenyl)sulfonyl-N-[[4-[5-(trifluoromethyl)pyrazin-2-yl]-2-pyridyl]methyl]pyrrolidine-2-carboxamide]
102 | O=C(NCc1cc(-c2ccc(C(F)(F)F)cn2)ccn1)[C@@H]1C[C@@H](F)CN1S(=O)(=O)c1ccc(F)cc1 [Example 131, (2S,4R)-4-fluoro-1-(4-fluorophenyl)sulfonyl-N-[[4-[5-(trifluoromethyl)-2-pyridyl]-2-pyridyl]methyl]pyrrolidine-2-carboxamide]
9 | O=C(NCc1cc(-c2ccc(C(F)(F)F)cn2)cc(F)n1)[C@@H]1C[C@@H](F)CN1S(=O)(=O)c1ccc(F)cc1 [Example 49, (2S,4R)-4-fluoro-N-([6-fluoro-4-[5-(trifluoromethyl)pyridin-2-yl]pyridin-2-yl]methyl)-1-[(4-fluorobenzene)sulfonyl]pyrrolidine-2-carboxamide]
